# Measurements from US9884043B2, “RORgammaT inhibitors” (Merck Sharp & Dohme Corp., priority 2011, dated 2018).
# Biological target: T1, 6His(GST)RORgamma-LBD (Homo sapiens, UniProt P51449)
# T1 construct: the applied RORgamma-LBD contains a 6-His and GST tag; GST (N); made in house; host or cells: baculovirus-infected Sf-21 insect cells
# T1 sequence (P51449 269-508 limits assumed): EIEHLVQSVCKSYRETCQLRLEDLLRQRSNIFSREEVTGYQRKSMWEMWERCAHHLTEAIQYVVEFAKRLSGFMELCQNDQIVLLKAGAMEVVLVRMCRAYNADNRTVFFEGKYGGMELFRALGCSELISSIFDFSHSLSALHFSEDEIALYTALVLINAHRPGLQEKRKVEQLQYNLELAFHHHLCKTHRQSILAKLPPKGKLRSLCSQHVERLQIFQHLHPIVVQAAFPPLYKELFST
# Assay: TR-FRET assay (Protocol A), RORgamma-LBD / SRC1_2 co-activator peptide interaction
# Assay type: biochemical
# Conditions: SRC1_2 peptide 0.1 μM, RORgamma-LBD 10 nM, overnight incubation at 4° C.
# Description: Activation of RORgammaT activity can be measured using e.g. biochemical TR-FRET assay. In such an assay, interaction of cofactor-derived peptides with human RORgammaT-Ligand Binding Domain (LBD) can be measured.
# To identify novel antagonists of RORgammaT, an assay was developed which employs the interaction of RORgammaT with its co-activator peptide SRC1_2. […] The assay was run following three slightly different protocols, i.e. Protocol A, Protocol B, and Protocol C, which are described below.
# TR-FRET Assay (Protocol A)
# The 6His(GST)RORgamma-LBD was expressed and purified from baculovirus infected Sf-21 insect cells (Bac-to-BAC, Invitrogen) and purified using glutathione sepharose chromatography (GE healthcare). Biotin and His function as anchoring points for streptavidin-allophycocyanin (Strep-APC, Perkin Elmer, C130-100) and anti-His-Europium Cryptate (Perkin Elmer, AD0111), respectively. Since energy transfer between the streptavidin and His-coupled labels APC and europium cryptate can only take place when these labels are in close proximity, measurement of energy transfer in a mixture of biotinylated peptide, His-GR-LBD, streptavidin-APC and anti-His-Europium Cryptate will be indicative for RORy-LBD/peptide binding. […] Changes in peptide binding caused by dose-curves of compounds added to the reaction mixture (DMSO concentration 0.1%), can likewise be monitored.
row,SMILES,EC50 [nM]
1,"O=C(c1c(Cl)cccc1Cl)n1nc(-c2ccc(-c3nnn[nH]3)cc2)c2ccccc21 [Example 22, (3-(4-(1H-tetrazol-5-yl)phenyl)-1H-indazol-1-yl)(2,6-dichlorophenyl)methanone]",5010
2,"Cc1cc(C)cc(S(=O)(=O)n2nc(-c3ccc(C(=O)O)cc3F)c3ccccc32)c1 [Example 17, 4-(1-(3,5-dimethylphenylsulfonyl)-1H-indazol-3-yl)-3-fluorobenzoic acid]",1230
3,"O=S(=O)(c1cccc(Cl)c1)n1nc(-c2ccc(-c3nnn[nH]3)cc2)c2ccccc21 [Example 20, 3-(4-(1H-tetrazol-5-yl)phenyl)-1-(3-chlorophenylsulfonyl)-1H-indazole]",3550
4,"O=C(O)c1ccc(-c2nn(S(=O)(=O)c3ccccc3Cl)c3ccncc23)cc1 [Example 16, 4-(1-(2-chlorophenylsulfonyl)-1H-pyrazolo[4,3-c]pyridin-3-yl)benzoic acid]",955
5,"O=C(O)c1ccc(-c2nn(C(=O)c3c(Cl)cccc3Cl)c3ccccc23)cc1 [Example 1, 4-(1-(2,6-dichlorobenzoyl)-1H-indazol-3-yl)benzoic acid]",10.7
6,"O=C(O)c1ccc(-c2nn(C(=O)c3c(Cl)cccc3Cl)c3c(F)cccc23)cc1 [Example 3, 4-(1-(2,6-dichlorobenzoyl)-7-fluoro-1H-indazol-3-yl)benzoic acid]",18.6
7,"Cc1cc(C)cc(S(=O)(=O)n2nc(-c3ccc(C(=O)O)c(C(F)(F)F)c3)c3ccccc32)c1 [Example 18, 4-(1-(3,5-dimethylphenylsulfonyl)-1H-indazol-3-yl)-2-(trifluoromethyl)benzoic acid]",3310
8,"O=C(c1cccc(Cl)c1Cl)n1nc(-c2ccc(-c3nnn[nH]3)cc2)c2ccccc21 [Example 23, (3-(4-(1H-tetrazol-5-yl)phenyl)-1H-indazol-1-yl)(2,3-dichlorophenyl)methanone]",1020
9,"O=C(O)c1ccc(-c2nn(C(=O)c3c(Cl)cccc3Cl)c3ccncc23)cc1 [Example 8, 4-(1-(2,6-dichlorobenzoyl)-1H-pyrazolo[4,3-c]pyridin-3-yl)benzoic acid]",4900

# Now from value to compound:
row,EC50 [nM],SMILES
1,389,"COC(=O)c1sccc1S(=O)(=O)n1nc(-c2ccc(-c3nnn[nH]3)cc2)c2ccccc21 [Example 21A, methyl 3-(3-(4-(1H-tetrazol-5-yl)phenyl)-1H-indazol-1-ylsulfonyl)thiophene-2-carboxylate]"
2,70.8,"O=C(O)c1ccc(-c2nn(C(=O)c3c(Cl)cc(Cl)cc3Cl)c3ccccc23)cc1 [Example 11H, 4-(1-(2,4,6-trichlorobenzoyl)-1H-indazol-3-yl)benzoic acid]"
3,155,"O=C(O)c1ccc(-c2nn(S(=O)(=O)c3cccc4cccnc34)c3ccccc23)cc1 [Example 13A, 4-(1-(quinolin-8-ylsulfonyl)-1H-indazol-3-yl)benzoic acid]"
4,575,"O=S(=O)(c1ccc(F)cc1Br)n1nc(-c2ccc(-c3nnn[nH]3)cc2)c2ccccc21 [Example 21B, 3-(4-(1H-tetrazol-5-yl)phenyl)-1-(2-bromo-4-fluorophenylsulfonyl)-1H-indazole]"
5,182,"O=C(O)c1ccc(-c2nn(S(=O)(=O)c3cccc4ccccc34)c3ccccc23)cc1 [Example 15B, 4-(1-(naphthalen-1-ylsulfonyl)-1H-indazol-3-yl)benzoic acid]"
6,224,"O=C(O)c1ccc(-c2nn(C(=O)c3ccccc3C(F)(F)F)c3cccnc23)cc1 [Example 6B, 4-(1-(2-(trifluoromethyl)benzoyl)-1H-pyrazolo[4,3-b]pyridin-3-yl)benzoic acid]"
7,275,"O=C(O)c1ccc(-c2nn(S(=O)(=O)c3ccccc3OC(F)(F)F)c3ccccc23)cc1 [Example 15A, 4-(1-(2-(trifluoromethoxy)phenylsulfonyl)-1H-indazol-3-yl)benzoic acid]"
8,339,"O=C(O)c1ccc(-c2nn(C(=O)c3c(Cl)cncc3Cl)c3ccccc23)cc1 [Example 11A, 4-(1-(3,5-dichloroisonicotinoyl)-1H-indazol-3-yl)benzoic acid]"
9,60.3,"COc1cccc(F)c1C(=O)n1nc(-c2ccc(C(=O)O)cc2)c2ccccc21 [Example 11G, 4-(1-(2-fluoro-6-methoxybenzoyl)-1H-indazol-3-yl)benzoic acid]"
10,44.7,"O=C(O)c1ccc(-c2nn(C(=O)c3ccccc3Br)c3ccccc23)cc1 [Example 11B, 4-(1-(2-bromobenzoyl)-1H-indazol-3-yl)benzoic acid]"
11,166,"O=C(O)c1ccc(-c2nn(S(=O)(=O)c3ccc(Cl)c(Cl)c3Cl)c3ccccc23)cc1 [Example 13F, 4-(1-(2,3,4-trichlorophenylsulfonyl)-1H-indazol-3-yl)benzoic acid]"
12,513,"Cc1ccc(C#N)c(S(=O)(=O)n2nc(-c3ccc(C(=O)O)cc3)c3ccccc32)c1 [Example 15E, 4-(1-(2-cyano-5-methylphenylsulfonyl)-1H-indazol-3-yl)benzoic acid]"

# Biological target: T2, HIS-tagged RORγ-LBD (Homo sapiens, UniProt P51449)
# T2 construct: HIS-tagged RORγ-LBD was recombinantly expressed in SF9 cells using a baculovirus expression system; made in house; host or cells: SF9 cells, baculovirus; crude lysate used
# T2 sequence (P51449 269-508 limits assumed): T1 sequence (P51449 269-508 limits assumed)
# Assay: TR-FRET assay (Protocol C), purified RORγ-LBD / biotinylated SRC1 LXXLL peptide
# Assay type: biochemical
# Conditions: purified RORγ-LBD 3 nM, SRC1 peptide 100 nM, overnight at 4° C.
# Description: Activation of RORgammaT activity can be measured using e.g. biochemical TR-FRET assay. In such an assay, interaction of cofactor-derived peptides with human RORgammaT-Ligand Binding Domain (LBD) can be measured. The TR-FRET technique is a sensitive biochemical proximity assay that will give information concerning the interaction of a ligand with the LBD, in the presence of cofactor derived peptides (Zhou et al., Methods 25:54-61, 2001).
# To identify novel antagonists of RORgammaT, an assay was developed which employs the interaction of RORgammaT with its co-activator peptide SRC1_2. This peptide mimics the recruitment of co-activators to RORgammaT through its interaction with the LXXLL (SEQ ID NO:2) (eg NR box) motifs (Xie et al., J. Immunol. 175: 3800-09, 2005; Kurebayashi et al., Biochem. Biophys. Res. Commun. 315: 919-27, 2004; Jin et al., Mol. Endocrinology 24:923-29, 2010). The assay was run following three slightly different protocols, i.e. Protocol A, Protocol B, and Protocol C, which are described below.
# TR-Fret Assay (Protocol C)
# HIS-tagged RORγ-LBD protein was expressed in SF9 cells using a baculovirus expression system. The RORγ-LBD protein was purified by glutathione sepharose chromatography. Separately, SF9 cells not expressing any recombinant protein were lysed and the lysate was added to the purified RORγ-LBD at 0.25 μl lysate (from 10,000 SF9 cells)/nM purified protein. The mixture was then diluted in assay buffer (50 mM Tris pH 7.0, 50 mM KCl, 1 mM EDTA, 0.1 mM DTT) to obtain RORγ-LBD final concentration of 3 nM in 384-well assay plate.
# Compounds to be tested were injected to the assay plate using Acoustic Droplet Ejection technology by Echo 550 liquid handler (Labcyte, Calif.). A stock of biotinylated-LXXLL (SEQ ID NO:2) peptide from coactivator SRC1 (Biotin-[…]) (SEQ ID NO: 1) was prepared in assay buffer and added to each well (100 nM final concentration). A solution of Europium tagged anti-HIS antibody (1.25 nM final concentration) and APC conjugated streptavidin (8 nM final concentration) were also added to each well.
# The final assay mixture was incubated for overnight at 4° C., and the fluorescence signal was measured on an Envision plate reader: (Excitation filter=340 nm; APC emission=665 nm; Europium emission=615 nm; dichroic mirror=D400/D630; delay time=100 μs, integration time=200 μs). IC50 values for test compounds were calculated from the quotient of the fluorescence signal at 665 nm divided by the fluorescence signal at 615 nm.
row,IC50 [nM],SMILES
1,< 50,"O=C(O)c1ccc(-c2nn(C(=O)c3c(Cl)cccc3C(F)(F)F)c3cc(C(=O)N4CC(F)(F)C4)ccc23)cc1 [Example 25U, 4-(1-(2-chloro-6-(trifluoromethyl)benzoyl)-6-(3,3-difluoroazetidine-1-carbonyl)-1H-indazol-3-yl)benzoic acid]"
2,50 to 500,"COCc1ccc2c(-c3ccc(C(=O)O)cc3)nn(C(=O)c3c(Cl)cccc3C(F)(F)F)c2c1 [Example 24BG, 4-(1-(2-chloro-6-(trifluoromethyl)-benzoyl)-6-(methoxymethyl)-1H-indazol-3-yl)benzoic acid]"
3,< 50,"O=C(O)c1ccc(-c2nn(C(=O)c3c(Cl)cccc3C(F)(F)F)c3ccccc23)c(Cl)c1 [Example 24AS, 3-chloro-4-(1-(2-chloro-6-(trifluoromethyl)-benzoyl)-1H-indazol-3-yl)benzoic acid]"
4,< 50,"COCCCNC(=O)c1ccc2c(-c3ccc(C(=O)O)cc3F)nn(C(=O)c3c(Cl)cccc3C(F)(F)F)c2c1 [Example 25N, 4-(1-(2-chloro-6-(trifluoromethyl)benzoyl)-6-(3-methoxypropyl-carbamoyl)-1H-indazol-3-yl)-3-fluorobenzoic acid]"
5,< 50,"O=C(O)c1c(F)cc(-c2nn(C(=O)c3c(Cl)cccc3C(F)(F)F)c3cccc(F)c23)c(F)c1O [Example 26G, 4-(1-(2-chloro-6-(trifluoromethyl)benzoyl)-4-fluoro-1H-indazol-3-yl)-3,6-difluoro-2-hydroxybenzoic acid]"
6,50 to 500,"COc1cccc(F)c1C(=O)n1nc(-c2ccc(C(=O)O)cc2)c2cccc(F)c21 [Example 24AV, 4-(7-fluoro-1-(2-fluoro-6-methoxybenzoyl)-1H-indazol-3-yl)benzoic acid]"
